Source: patent US9765092B2, “Tricyclic piperidine compounds” (ACTELION PHARMACEUTICALS LTD, priority 2013, dated 2017)
pIC50: −log10 of the molar value.

Molecular target: human TPH1 (Homo sapiens (Human), UniProt P17752)
Assay: Biochemical in vitro assay using fluorescence readout (TPH1 inhibition)
From the text: Biochemical In Vitro Assay Using Fluorescence Readout
To generate the enzyme, full length human TPH1 is cloned into the plasmid pET20b(+) (Novagen) and expressed in E. coli. The bacterial cells are ruptured by sonication on ice and the lysate is cleared by centrifugation. The resulting protein in the pellet is re-extracted and TPH1 is purified from the obtained lysate by affinity chromatography using a pterin cosubstrate analog immobilized to the resin of the column. The protein is further purified by size exclusion chromatography to remove protein aggregates. The activity of TPH1 is determined by using a fluorescence assay. The enzyme activity assay is carried out at 15° C. with atmosphere oxygen for the duration of 60 minutes in a volume of 64 μl. The reaction is carried out in a 0.1 M Tris-HCl buffer, adjusted to pH 7.6, containing 1 mM DTT, 0.2 mg/mL catalase, 100 μM (±)-6-methyl-5,6,7,8-tetrahydropterine dihydrochloride, 40 μM L-tryptophan, and 40-80 nM of TPH1. The reaction is started by bringing together L-tryptophan with all the other reaction substituents and stopped by quenching with perchloric acid (HClO4). The amount of 5-hydroxy-L-tryptophan produced during the enzymatic reaction is determined by fluorescence readout. Fluorescence, as determined at 540 nm when excited at 300 nm wavelength, increases proportionally to the 5-hydroxy-L-tryptophan formed. Compounds are prepared as 10 mM stock solution in DMSO, then diluted in 384-well plates using DMSO followed by a transfer of the dilutions into the assay plate. Fluorescence is measured for each well and the fluorescence at 540 nm wavelength is compared to the fluorescence of the vehicle in place of compound. Inhibitory activities of example compounds with respect to the TPH1 protein are determined by calculating the IC50 value (the concentration of compound needed to inhibit 50% of the enzyme activity). The calculated IC50 values may fluctuate depending on the daily biochemical assay performance. Fluctuations of this kind are known to those skilled in the art.

[1] = human TPH1, fluorescence readout

Chain of human TPH1 (P17752 whole entry): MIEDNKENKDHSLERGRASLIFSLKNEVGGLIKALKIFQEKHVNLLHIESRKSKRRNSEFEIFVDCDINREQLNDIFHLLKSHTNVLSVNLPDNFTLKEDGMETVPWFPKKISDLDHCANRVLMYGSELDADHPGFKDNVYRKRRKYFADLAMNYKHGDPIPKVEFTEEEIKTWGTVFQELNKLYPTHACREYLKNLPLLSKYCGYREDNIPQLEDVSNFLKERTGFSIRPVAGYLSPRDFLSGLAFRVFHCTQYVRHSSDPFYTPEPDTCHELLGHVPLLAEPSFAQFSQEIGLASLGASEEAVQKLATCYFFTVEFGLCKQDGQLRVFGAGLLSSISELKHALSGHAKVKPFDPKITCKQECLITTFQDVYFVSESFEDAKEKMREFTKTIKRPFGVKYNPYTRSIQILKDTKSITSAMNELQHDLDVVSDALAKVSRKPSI

COCCOc1ccc(C2c3c(nc4sc(C)nn34)CCN2C(=O)COc2ccc(NS(C)(=O)=O)nc2Cl)c(F)c1 (stereo not drawn) [Example 1.83.2, N-(6-chloro-5-(2-(5-(2-fluoro-4-(2-methoxyethoxy)phenyl)-2-methyl-7,8-dihydro-[1,3,4]thiadiazolo[2′,3′:2,3]imidazo[4,5-c]pyridin-6(5H)-yl)-2-oxoethoxy)pyridin-2-yl)methanesulfonamide]
pIC50 [1]: 7.74

Cc1nn2c3c(nc2s1)CCN(C(=O)COc1ccc(NS(C)(=O)=O)cc1Cl)C3c1ncc(Cl)cc1F (stereo not drawn) [Example 1.33.7, N-(3-chloro-4-(2-(5-(5-chloro-3-fluoropyridin-2-yl)-2-methyl-7,8-dihydro-[1,3,4]thiadiazolo[2′,3′:2,3]imidazo[4,5-c]pyridin-6(5H)-yl)-2-oxoethoxy)phenyl)methanesulfonamide]
pIC50 [1]: 7.89

CN(C)C(=O)c1ccc(OCC(=O)N2CCc3nc4sccn4c3C2c2sc(C(=O)N(C)C)cc2F)c(Cl)n1 (stereo not drawn) [Example 6.9.2, 6-chloro-5-(2-(5-(5-(dimethylcarbamoyl)-3-fluoro-thiophen-2-yl)-7,8-dihydrothiazolo[2′,3′:2,3]imidazo-[4,5-c]pyridin-6(5H)-yl)-2-oxoethoxy)-N,N-dimethylpicolinamide]
pIC50 [1]: 8.30

CCc1nc(NS(C)(=O)=O)ccc1OCC(=O)N1CCc2nc3sc(C(F)(F)F)nn3c2C1c1ccc(Cl)cc1F (stereo not drawn) [Example 5.1.2, N-(5-(2-(5-(4-chloro-2-fluorophenyl)-2-(trifluoromethyl)-7,8-dihydro-[1,3,4]thiadiazolo[2′,3′:2,3]imidazo[4,5-c]pyridin-6(5H)-yl)-2-oxoethoxy)-6-ethylpyridin-2-yl)methanesulfonamide]
pIC50 [1]: 7.49

Cc1nn2c3c(nc2s1)CCN(C(=O)COc1ccc(N(C)C)nc1Cl)C3c1ccc(Cl)cc1F (stereo not drawn) [Example 1.4.7, 1-(5-(4-chloro-2-fluorophenyl)-2-methyl-7,8-dihydro-[1,3,4]thiadiazolo[2′,3′:2,3]imidazo[4,5-c]pyridin-6(5H)-yl)-2-((2-chloro-6-(dimethylamino)pyridin-3-yl)oxy)ethanone]
pIC50 [1]: 8.22

Cc1nn2c3c(nc2s1)CCN(C(=O)COc1ccc(C(F)(F)F)cc1Cl)C3c1ccc(Cl)nc1F (stereo not drawn) [Example 1.16.7, 1-(5-(6-chloro-2-fluoropyridin-3-yl)-2-methyl-7,8-dihydro-[1,3,4]thiadiazolo[2′,3′:2,3]imidazo[4,5-c]pyridin-6(5H)-yl)-2-(2-chloro-4-(trifluoromethyl)phenoxy)ethanone]
pIC50 [1]: 8.30

Cc1nn2c3c(nc2s1)CCN(C(=O)COc1ccc(N2CCOCC2)nc1Cl)C3c1nc(C(=O)N(C)C)co1 (stereo not drawn) [Example 1.43.1, 2-(6-(2-((2-Chloro-6-morpholinopyridin-3-yl)oxy)acetyl)-2-methyl-5,6,7,8-tetrahydro-[1,3,4]thiadiazolo[2′,3′:2,3]imidazo[4,5-c]pyridin-5-yl)-N,N-dimethyloxazole-4-carboxamide]
pIC50 (full length human TPH1, 40 μM L-tryptophan, 15° C., 60 minutes, fluorescence at 540 nm, mean if determined several times): 7.59

CCc1nc(C)ccc1OCC(=O)N1CCc2nc3sccn3c2C1c1c(C)noc1C (stereo not drawn) [Example 6.5.1, 1-(5-(3,5-dimethylisoxazol-4-yl)-7,8-dihydrothiazolo-[2′,3′:2,3]imidazo[4,5-c]pyridin-6(5H)-yl)-2-((2-ethyl-6-methylpyridin-3-yl)oxy)ethanone]
pIC50 [1]: 6.93

CCc1nc(Cl)ncc1OCC(=O)N1CCc2nc3sc(C)nn3c2[C@@H]1c1ncc(C)cc1F [Example 1.31.18, (R)-2-((2-chloro-4-ethylpyrimidin-5-yl)oxy)-1-(5-(3-fluoro-5-methylpyridin-2-yl)-2-methyl-7,8-dihydro-[1,3,4]thiadiazolo[2′,3′:2,3]imidazo[4,5-c]pyridin-6(5H)-yl)ethanone]
pIC50 [1]: 7.31

Cc1nn2c3c(nc2s1)CCN(C(=O)COc1ccc(N2CCOCC2)nc1Cl)C3c1ccc(C2CC2)cc1F (stereo not drawn) [Example 1.6.17, 2-((2-chloro-6-morpholinopyridin-3-yl)oxy)-1-(5-(4-cyclopropyl-2-fluorophenyl)-2-methyl-7,8-dihydro-[1,3,4]thiadiazolo [2′,3′:2,3]imidazo[4,5-c]pyridin-6(5H)-yl)ethanone]
pIC50 [1]: 8.52

Cc1nn2c3c(nc2s1)CCN(C(=O)COc1ccc(NS(C)(=O)=O)nc1Cl)C3c1sc(C(C)C)nc1C (stereo not drawn) [Example 1.73.1, N-(6-chloro-5-(2-(5-(2-isopropyl-4-methylthiazol-5-yl)-2-methyl-7,8-dihydro-[1,3,4]thiadiazolo[2′,3′:2,3]imidazo[4,5-c]pyridin-6(5H)-yl)-2-oxoethoxy)pyridin-2-yl)methanesulfonamide]
pIC50 [1]: 7.22

Cc1nn2c3c(nc2s1)CCN(C(=O)COc1ccc(NS(C)(=O)=O)nc1Cl)C3c1cncs1 (stereo not drawn) [Example 1.39.1, N-(6-chloro-5-(2-(2-methyl-5-(thiazol-5-yl)-7,8-dihydro-[1,3,4]thiadiazolo[2′,3′:2,3]imidazo[4,5-c]pyridin-6(5H)-yl)-2-oxoethoxy)pyridin-2-yl)methanesulfonamide]
pIC50 [1]: 7.00

Cc1nn2c3c(nc2s1)CCN(C(=O)COc1ccc(NS(C)(=O)=O)nc1Cl)C3c1ncc(Cl)cc1F (stereo not drawn) [Example 1.33.6, N-(6-chloro-5-(2-(5-(5-chloro-3-fluoropyridin-2-yl)-2-methyl-7,8-dihydro-[1,3,4]thiadiazolo[2′,3′:2,3]imidazo[4,5-c]pyridin-6(5H)-yl)-2-oxoethoxy)pyridin-2-yl)methanesulfonamide]
pIC50 [1]: 8.22

O=C(COc1ccc(-c2ncco2)nc1Cl)N1CCc2nc3sc(C4CC4)nn3c2C1c1ccc(Cl)cc1F (stereo not drawn) [Example 4.1.3, 1-(5-(4-chloro-2-fluorophenyl)-2-cyclopropyl-7,8-dihydro-[1,3,4]thiadiazolo[2′,3′:2,3]imidazo[4,5-c]pyridin-6(5H)-yl)-2-((2-chloro-6-(oxazol-2-yl)pyridin-3-yl)oxy)ethanone]
pIC50 [1]: 7.89

O=C(COc1ccc(CN2CCOCC2)nc1Cl)N1CCc2nc3sccn3c2C1c1nc2ccccc2s1 (stereo not drawn) [Example 6.12.8, 1-(5-(benzo[d]thiazol-2-yl)-7,8-dihydrothiazolo-[2′,3′:2,3]imidazo[4,5-c]pyridin-6(5H)-yl)-2-((2-chloro-6-(morpholinomethyl)pyridin-3-yl)oxy)ethanone]
pIC50 [1]: 7.37

COC(=O)c1cnc(C2c3c(nc4sc(C)nn34)CCN2C(=O)COc2ccc(NS(=O)(=O)C3CC3)nc2Cl)s1 (stereo not drawn) [Example 1.28.3, Methyl 2-(6-(2-((2-chloro-6-(cyclopropanesulfonamido)pyridin-3-yl)oxy)acetyl)-2-methyl-5,6,7,8-tetrahydro-[1,3,4]thiadiazolo[2′,3′:2,3]imidazo[4,5-c]pyridin-5-yl)thiazole-5-carboxylate]
pIC50 [1]: 7.35

Cc1nn2c3c(nc2s1)CCN(C(=O)COc1ccc(C(=O)N(C)C)nc1Cl)C3c1cnc(C(=O)N(C)C)s1 (stereo not drawn) [Example 1.34.2, 5-(6-(2-((2-chloro-6-(dimethylcarbamoyl)pyridin-3-yl)oxy)acetyl)-2-methyl-5,6,7,8-tetrahydro-[1,3,4]thiadiazolo [2′,3′:2,3]imidazo[4,5-c]pyridin-5-yl)-N,N-dimethylthiazole-2-carboxamide]
pIC50 [1]: 8.05

CCc1nc(Cl)ncc1OCC(=O)N1CCc2nc3sc(C)nn3c2C1c1ccc(C)c(F)c1F (stereo not drawn) [Example 1.61.4, 2-((2-chloro-4-ethylpyrimidin-5-yl)oxy)-1-(5-(2,3-difluoro-4-methylphenyl)-2-methyl-7,8-dihydro-[1,3,4]thiadiazolo[2′,3′:2,3]imidazo[4,5-c]pyridin-6(5H)-yl)ethanone]
pIC50 [1]: 7.31
